Experimental data taken from US20170204092A1, “4,5-DIHYDROISOXAZOLE DERIVATIVES AS NAMPT INHIBITORS” (AURIGENE DISCOVERY TECHNOLOGIES LIMITED, priority 2014, published 2017).
Read-outs that look alike come from different tables or passages of the source.

Columns and labels:
MiaPaCa-2 cells = assay: Cytotoxicity assay in MiaPaCa-2 (XTT, 72 h); type: cell-based; conditions: for inhibition at 1 µM / inhibition at 10 µM / Cell cytotoxicity assay (% Inhibition at 1 μM) / Cell cytotoxicity assay (% Inhibition at 10 μM): DMSO control = 0% inhibition; for inhibition at 1 µM: read-out: Cell cytotoxicity assay (% Inhibition at 1 μM); for inhibition at 10 µM: read-out: Cell cytotoxicity assay (% Inhibition at 10 μM); for IC50: XTT, read-out: Cell cytotoxicity assay IC50 in range
Method: MiaPaCa-2 Cells (ATCC) were seeded in 96 well plates (Costar clear flat bottom) at a density of 3000 cells/well and allowed to settle overnight. Test compounds were dissolved in dimethyl sulphoxide (DMSO-Sigma Aldrich, D2650) and incubated with MiaPaCa-2 cells for 72 h. Post 72 h, 50 μl XTT (1 mg/mL; Invitrogen, X 6493) and PMS ([…]; Sigma Aldrich, P9625) reagents were added to the cells in 100 μl of cDMEM (Sigma Aldrich-D5648)+10% FBS (Hyclone-5430088-03)+1×Pen Strep (Sigma Aldrich-P0781). After 1 hour incubation with XTT and PMS absorbance was monitored with Spectramax M3 (Molecular Device). Percentage inhibition of proliferation at 10 μM and 1 μM concentrations was calculated by considering DMSO control as 0% inhibition. IC50 values were plotted using Graph pad prism software (Graph pad Inc, La Jola, Calif., USA).

[1] = target: T1, recombinant NAMPT wild type protein (Homo sapiens, UniProt P43490); assay: NAMPT fluorescence assay; type: biochemical; conditions: 50 ng NAMPT, 2 μM Nam, 10 point dose response; read-out: Fluorescence assay IC50 in range
T1 construct: made in house; host or cells: E. coli
T1 sequence (P43490 whole entry): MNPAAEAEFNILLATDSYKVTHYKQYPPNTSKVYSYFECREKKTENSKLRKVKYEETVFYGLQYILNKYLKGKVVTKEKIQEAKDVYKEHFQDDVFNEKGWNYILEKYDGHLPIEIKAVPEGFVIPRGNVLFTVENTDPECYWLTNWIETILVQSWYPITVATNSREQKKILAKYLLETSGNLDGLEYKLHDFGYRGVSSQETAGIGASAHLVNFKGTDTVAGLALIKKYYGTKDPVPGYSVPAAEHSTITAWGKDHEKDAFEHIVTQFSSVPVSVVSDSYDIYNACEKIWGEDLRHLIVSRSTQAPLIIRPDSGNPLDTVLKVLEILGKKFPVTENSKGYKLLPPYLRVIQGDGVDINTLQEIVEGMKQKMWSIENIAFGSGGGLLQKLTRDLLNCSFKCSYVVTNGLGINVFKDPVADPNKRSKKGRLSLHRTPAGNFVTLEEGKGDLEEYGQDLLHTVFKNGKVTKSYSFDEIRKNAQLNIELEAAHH
Method: The enzymatic assay was standardized using in-house recombinant NAMPT wild type protein from E. coli expression & NAM (Cat #47865-U) as a substrate. The product NMN formed after enzymatic reaction was derivatized to a fluorescent derivative through sequentially reacting with acetophenone/KOH and formic acid. The derivatized fluorescent NMN derivative was detected at 382 nm excitation wavelength and a 445 nm emission wavelength. […] The fluorescence was measured (Excitation at 382 nm & Emission at 445 nm) using Victor^3 V fluorimeter. The data is calculated using the RFU values. The final concentration of DMSO was 2% in the assay. Each individual IC50 was determined using 10 point dose response curve generated by GraphPad Prism software Version 4 (San Diego, Calif., USA) using nonlinear regression curve fit for sigmoidal dose response (variable slope).

| SMILES | inhibition at 1 µM (MiaPaCa-2 cells; Homo sapiens, MIA PaCa-2, 72 h) | inhibition at 10 µM (MiaPaCa-2 cells; Homo sapiens, MIA PaCa-2, 72 h) | IC50 (MiaPaCa-2 cells; Homo sapiens, MIA PaCa-2, 72 h) | Cell cytotoxicity assay (% Inhibition at 1 μM) (MiaPaCa-2 cells) | Cell cytotoxicity assay (% Inhibition at 10 μM) (MiaPaCa-2 cells) | IC50 (MiaPaCa-2 cells) | IC50 [1] |
| --- | --- | --- | --- | --- | --- | --- | --- |
| O=C(NCC1=NOC(COc2ccncc2-c2ccc(F)nc2)C1)c1ccc2nccn2c1 (racemic) [Example 3, N-((5-(((6′-fluoro-[3,3′-bipyridin]-4-yl)oxy)methyl)-4,5-dihydroisoxazol-3-yl)methyl)-imidazo[1,2-a]pyridine-6-carboxamide] | 5% | 80% | > 250 nM |  |  |  |  |
| O=C(NCC1=NOC(COc2cccnc2-c2ccc(Cl)nc2)C1)c1ccc2nccn2c1 (single isomer, unassigned) [Example 8b, N-((5-(((6′-chloro-[2,3′-bipyridin]-3-yl)oxy)methyl)-4,5-dihydroisoxazol-3-yl)methyl)imidazo[1,2-a]pyridine-6-carboxamide] |  |  |  | 92% | 94% | 50 to 250 nM | > 25 nM |
| O=C(NCC1=NOC(COc2cccnc2-c2cccnc2)C1)c1ccc2nccn2c1 (single isomer, unassigned) [Example 7a, N-((5-(([2,3′-bipyridin]-3-yloxy)methyl)-4,5-dihydroisoxazol-3-yl)methyl)-imidazo[1,2-a]pyridine-6-carboxamide] |  |  |  |  |  | < 50 nM | < 10 nM |
| N#Cc1ccc(OCC2CC(CNC(=O)c3ccc4nccn4c3)=NO2)c(-c2ccc(F)nc2)n1 (racemic) [Example 10, N-((5-(((6-cyano-6′-fluoro-[2,3′-bipyridin]-3-yl)oxy)methyl)-4,5-dihydroisoxazol-3-yl)methyl)imidazo[1,2-a]pyridine-6-carboxamide] | 95% | 95% | 50 to 250 nM |  |  |  | 10 to 25 nM |
| N#Cc1ccc(OCC2CC(CNC(=O)c3ccc4nccn4c3)=NO2)c(-c2ccc(F)nc2)n1 (single isomer, unassigned) [Example 10a, N-((5-(((6-cyano-6′-fluoro-[2,3′-bipyridin]-3-yl)oxy)methyl)-4,5-dihydroisoxazol-3-yl)methyl)imidazo[1,2-a]pyridine-6-carboxamide] | 100% | 100% | < 50 nM |  |  |  |  |
| O=C(NCC1=NOC(COc2cccnc2-c2ccc(Cl)nc2)C1)c1ccc2nccn2c1 (racemic) [Example 8, N-((5-(((6′-chloro-[2,3′-bipyridin]-3-yl)oxy)methyl)-4,5-dihydroisoxazol-3-yl)methyl)imidazo[1,2-a]pyridine-6-carboxamide] |  |  | < 50 nM |  |  |  | 10 to 25 nM |
| Cc1cnc(-c2ccc(F)nc2)c(OCC2CC(CNC(=O)c3ccc4nccn4c3)=NO2)c1 (racemic) [Example 11, N-((5-(((6′-fluoro-5-methyl-[2,3′-bipyridin]-3-yl)oxy)methyl)-4,5-dihydroisoxazol-3-yl)methyl)imidazo[1,2-a]pyridine-6-carboxamide] | 96% | 95% | < 50 nM |  |  |  | 10 to 25 nM |
| O=C(NCC1=NOC(COc2cc(F)cnc2-c2ccc(F)nc2)C1)c1ccc2nccn2c1 (racemic) [Example 9, N-((5-(((5,6′-difluoro-[2,3′-bipyridin]-3-yl)oxy)methyl)-4,5-dihydroisoxazol-3-yl)methyl)imidazo[1,2-a]pyridine-6-carboxamide] | 88% | 89% | < 50 nM |  |  |  | 10 to 25 nM |
| O=C(NCC1=NOC(COc2cc(F)cnc2-c2cccnc2)C1)c1ccc2nccn2c1 (racemic) [Example 15, N-((5-(((5-fluoro-[2,3′-bipyridin]-3-yl)oxy)methyl)-4,5-dihydroisoxazol-3-yl)methyl)imidazo[1,2-a]pyridine-6-carboxamide] | 99% | 99% | 50 to 250 nM |  |  |  |  |
| Cc1ccc(OCC2CC(CNC(=O)c3ccc4nccn4c3)=NO2)c(-c2ccc(F)nc2)n1 (single isomer, unassigned) [Example 12b, N-((5-(((6′-fluoro-6-methyl-[2,3′-bipyridin]-3-yl)oxy)methyl)-4,5-dihydroisoxazol-3-yl)methyl)imidazo[1,2-a]pyridine-6-carboxamide] |  |  |  | 100% | 100% | < 50 nM | 10 to 25 nM |
| O=C(NCC1=NOC(COc2cccnc2-c2cccnc2)C1)c1ccc2nccn2c1 (racemic) [Example 7, N-((5-(([2,3′-bipyridin]-3-yloxy)methyl)-4,5-dihydroisoxazol-3-yl)methyl)-imidazo[1,2-a]pyridine-6-carboxamide] | 90% | 90% | 50 to 250 nM |  |  |  | 10 to 25 nM |
| O=C(NCC1=NOC(COc2cccnc2-c2ccc(F)nc2)C1)c1ccc2nccn2c1 (single isomer, unassigned) [Example 4a, N-((5-(((6′-fluoro-[2,3′-bipyridin]-3-yl)oxy)methyl)-4,5-dihydroisoxazol-3-yl)methyl)imidazo[1,2-a]pyridine-6-carboxamide] |  | 83% |  | 8% |  | > 250 nM | < 10 nM |
| Cc1cnc(-c2ccc(F)nc2)c(OCC2CC(CNC(=O)c3ccc4nccn4c3)=NO2)c1 (single isomer, unassigned) [Example 11b, N-((5-(((6′-fluoro-5-methyl-[2,3′-bipyridin]-3-yl)oxy)methyl)-4,5-dihydroisoxazol-3-yl)methyl)imidazo[1,2-a]pyridine-6-carboxamide] |  |  |  | 100% | 98% | < 50 nM | 10 to 25 nM |
| O=C(NCC1=NOC(COc2cc(Cl)cnc2-c2ccc(F)nc2)C1)c1ccc2nccn2c1 (racemic) [Example 14, N-((5-(((5-chloro-6′-fluoro-[2,3′-bipyridin]-3-yl)oxy)methyl)-4,5-dihydro-isoxazol-3-yl)methyl)imidazo[1,2-a]pyridine-6-carboxamide] | 95% | 95% | < 50 nM |  |  |  | 10 to 25 nM |
| Cc1cnc(-c2ccc(F)nc2)c(OCC2CC(CNC(=O)c3ccc4nccn4c3)=NO2)c1 (single isomer, unassigned) [Example 11a, N-((5-(((6′-fluoro-5-methyl-[2,3′-bipyridin]-3-yl)oxy)methyl)-4,5-dihydroisoxazol-3-yl)methyl)imidazo[1,2-a]pyridine-6-carboxamide] | 88% | 100% |  |  |  | > 250 nM | 10 to 25 nM |
| N#Cc1ccc(OCC2CC(CNC(=O)c3ccc4nccn4c3)=NO2)c(-c2ccc(F)nc2)n1 (single isomer, unassigned) [Example 10b, N-((5-(((6-cyano-6′-fluoro-[2,3′-bipyridin]-3-yl)oxy)methyl)-4,5-dihydroisoxazol-3-yl)methyl)imidazo[1,2-a]pyridine-6-carboxamide] |  |  |  | 100% | 100% |  |  |
| O=C(NCC1=NOC(COc2cccnc2-c2cccnc2)C1)c1ccc2nccn2c1 (single isomer, unassigned) [Example 7b, N-((5-(([2,3′-bipyridin]-3-yloxy)methyl)-4,5-dihydroisoxazol-3-yl)methyl)-imidazo[1,2-a]pyridine-6-carboxamide] |  |  |  |  |  | > 250 nM |  |
| O=C(NCC1=NOC(COc2cccnc2-c2ccc(Cl)nc2)C1)c1ccc2nccn2c1 (single isomer, unassigned) [Example 8a, N-((5-(((6′-chloro-[2,3′-bipyridin]-3-yl)oxy)methyl)-4,5-dihydroisoxazol-3-yl)methyl)imidazo[1,2-a]pyridine-6-carboxamide] |  |  |  | 10% | 10% | > 10000 nM |  |
| O=C(NCC1=NOC(COc2cc(Cl)cnc2-c2ccc(F)nc2)C1)c1ccc2nccn2c1 (single isomer, unassigned) [Example 14a, N-((5-(((5-chloro-6′-fluoro-[2,3′-bipyridin]-3-yl)oxy)methyl)-4,5-dihydroisoxazol-3-yl)methyl)imidazo[1,2-a]pyridine-6-carboxamide] | 93% | 98% |  |  |  | > 250 nM |  |
| O=C(NCC1=NOC(COc2cc(Cl)cnc2-c2ccc(F)nc2)C1)c1ccc2nccn2c1 (single isomer, unassigned) [Example 14b, N-((5-(((5-chloro-6′-fluoro-[2,3′-bipyridin]-3-yl)oxy)methyl)-4,5-dihydroisoxazol-3-yl)methyl)imidazo[1,2-a]pyridine-6-carboxamide] |  |  |  | 100% | 98% | < 50 nM |  |
